Laboratory results reported in US11530205B2, “GLP-1 receptor modulators” (RECEPTOS LLC, priority 2017, dated 2022).
pEC50: −log10 of the molar value.

Biological target: T1, Human GLP-1R (Homo sapiens, UniProt P43220)
T1 construct: expressed in transfected cells; host or cells: CRE-bla CHO-K1 (Chinese hamster ovary) cells
Assay: EC20 GLP-1(9-36) PAM cAMP assay: dose response of compound in the presence of fixed concentration of GLP-1(9-36)
Format: cell-based
Conditions: Human GLP-1R CRE-bla CHO-K1 cells, 60 nM GLP-1(9-36), 30 minutes at 37° C.
Description: EC20GLP-1(9-36) PAM cAMP Assay: Dose Response of Compound in the Presence of Fixed Concentration of GLP-1 (9-36)
Human GLP-1R CRE-bla CHO-K1 cells were cultured in growth medium (DMEM-High glucose, 10% dialyzed FBS, 0.1 mM NEAA, 25 mM Hepes, 100 U/mL penicillin/100 μg/mL streptomycin, 5 μg/mL Blasticidin, 600 μg/mL Hygromycin), trypsinized and plated in suspension into 384-well white flat bottom plates at 5000 cells/well in 12 μL assay buffer (Hank's Balanced Salt Solution, 10 mM Hepes, 0.1% BSA, pH 7.4). Each compound at a 5× concentration was diluted to a final concentration range of 10 to 0.01 μM (11 points) in assay buffer containing 1.5 mM IBMX and 4% DMSO. GLP-1(9-36) was diluted from 4.2 μM (30 x) to a final assay concentration of 60 nM in assay buffer containing 1.5 mM IBMX and 4% DMSO. Each compound concentration (5×) was added (3 μL), followed by 0.5 μL of GLP-1(9-36) and cells incubated for 30 minutes at 37° C. The peptide was added to the wells using siliconized tips. The reaction was stopped and levels of cAMP were quantified using the DiscoverX HitHunter cAMP kit according to the manufacturer's instructions and luminescence was detected using a SpectraMax M5 Multi-Mode Microplate reader. Luminescence was converted to total cAMP using a cAMP standard curve and data were analyzed by non-linear regression to determine the EC50 and Emax for each compound.

T1 sequence (P43220 24-463): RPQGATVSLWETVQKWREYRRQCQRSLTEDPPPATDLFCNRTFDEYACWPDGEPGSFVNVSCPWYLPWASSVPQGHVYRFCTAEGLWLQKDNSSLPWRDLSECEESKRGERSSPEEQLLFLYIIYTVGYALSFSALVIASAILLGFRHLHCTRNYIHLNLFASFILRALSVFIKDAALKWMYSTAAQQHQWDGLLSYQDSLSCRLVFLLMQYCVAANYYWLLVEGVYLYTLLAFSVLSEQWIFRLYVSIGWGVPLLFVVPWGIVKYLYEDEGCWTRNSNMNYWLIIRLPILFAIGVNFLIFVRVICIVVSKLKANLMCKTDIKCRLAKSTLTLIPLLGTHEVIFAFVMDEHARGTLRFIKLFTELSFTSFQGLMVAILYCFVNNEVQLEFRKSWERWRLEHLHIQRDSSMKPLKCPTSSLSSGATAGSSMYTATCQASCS

Row | Structure (SMILES) | pEC50
1 | COc1ccc(CC(=O)Nc2ccc(C(=O)N(CC(=O)O)Cc3ccc(-c4ncc(C5=CCC(C(C)(C)C)CC5)cn4)cc3)cc2)c(C(F)(F)F)c1 (stereo not drawn) [Compound 77] | 5.30 to 5.60
2 | CC[C@H]1CC[C@H](C2CC=C(c3cnc(-c4ccc(CN(CC(=O)N5CC[C@H](C(=O)O)C5)C(=O)c5ccc(NC(=O)Cc6ccc(OC)cc6C(F)(F)F)cc5)cc4)nc3)CC2)CC1 (stereo partly drawn) [Compound 15] | > 6.10

Other lines, results leading:

Row | pEC50 | Structure (SMILES)
3 | 5.60 to 6.10 | COc1ccc(CC(=O)Nc2ccc(C(=O)N(CC(=O)O)Cc3ccc(-c4cnc(C5=CCC(C(C)C)CC5)cn4)cc3)cc2)cc1 (stereo not drawn) [Compound 88]
4 | > 6.10 | CC[C@H]1CC[C@H](C2CC=C(c3cnc(-c4ccc(CN(CC(=O)O)C(=O)CCC(=O)CN5c6cccc7cccc(c67)S5(=O)=O)cc4)nc3)CC2)CC1 (stereo partly drawn) [Compound 127]
5 | > 6.10 | CC[C@H]1CC[C@H](C2CC=C(c3cnc(-c4ccc(CN(CC(=O)O)C(=O)c5ccc(NC(=O)CCc6ccc(OC)cc6)cc5)cc4)nc3)CC2)CC1 (stereo partly drawn) [Compound 93]
6 | 5.60 to 6.10 | CC[C@H]1CC[C@@H]([C@@H]2CC=C(c3cnc(-c4ccc(CN(CC(=O)O)C(=O)CNC(=O)Cc5ccc(OC)cc5)cc4)nc3)CC2)CC1 [Compound 118]
